Measured values as given in patent publication US20110059475A1, “STABILISATION OF BLOOD CELL CONJUGATES” (THE UNIVERSITY OF NOTTINGHAM, priority 2008, published 2011).
“Also recorded” adds a separate entry of the source.

Legend:
platelets [1] = test: Whole blood platelet aggregation: flow cytometric single platelet count in fixed and stabilised citrate-anticoagulated blood; type: cell-based
From the text: Referring to FIG. 1, there are illustrated dot plots by which the number of single platelets may be quantified. Once the number of single platelets has been determined, it is then possible to calculate the percentage degree of platelet aggregation. Quantification of single platelets in whole blood by flow cytometry required 50,000 red cell events which were collected in region P1 on a forward scatter/side scatter plot, as shown in FIG. 1a. CD42a fluorescence was plotted against forward scatter, and region P2 was selected by drawing a curved line to include all platelet-related events and excluding erythrocyte/platelet co-incidences marked “e/p”, as shown in FIG. 1b. EDTA-anti-coagulated blood, or citrate anti-coagulated blood containing EDTA thus containing unstimulated platelets, was used to set three rectangular gates to quantitate microparticles (P3), single platelets (P4), and microaggregates (P5). These gates were then applied to the dot plots obtained for stimulated samples of blood, recording single platelets in P4. An example of results from an ADP-stimulated, fixed sample in which the single platelet events (P4) reduced from 1716 to 182 (indicating the formation of platelet aggregates) is shown in FIGS. 1d, 1e and 1f.
Fixed and stabilised blood samples were mixed gently by repeated inversion of the sample tubes. 100 μl of the fixed blood was placed in a flow cytometry tube and centrifuged at 380 g for 5 minutes after which 90 μl of the supernatant is removed. The remaining 10 μl of fixed blood was then incubated with 10 μl of a 1 in 10 dilution of CD42a-FITC-labelled antibody for 20 min at 4° C. in the FACS tubes. 1 ml of FACSflow (or any other flow cytometry diluent) was added to the tubes immediately prior to reading on any flow cytometer equipped with a laser operating at an excitation wavelength of 488 nm and with detectors for measurement at suitable wavelengths for the selected fluorochromes (ie FITC). Appropriate software was used to acquire and analyse data on dot plots of forward scatter versus side scatter and forward scatter versus FITC fluorescence acquired with logarithmic amplification. Acquisition was stopped after recording 50,000 erythrocyte events. A sample of fixed unstimulated EDTA-anti-coagulated blood was used to set the vertical lines of three square gates P3, P4 and P5 on a forward scatter versus FITC fluorescence plot. These gates were adjusted to record microparticles in P3, single platelets in P4 and any microaggregates in P5 (see Example 2). The test samples are then analysed using the same gates. Larger aggregates would not be detected by the flow cytometer since they would be too large and cannot pass through the sample tube of the machine.
The single platelet count described above is a record of the number of single platelets present in each blood sample (recorded as single platelet events, ie the number of single platelets passing the laser) in relation to 50,000 erythrocyte events recorded, ie erythrocytes passing the laser. It is possible to calculate a true platelet count by using standard flow cytometry counting beads, such as those sold under the trade name Trucount. Aggregation is usually determined as a percentage, and in whole blood this may be recorded as a percentage fall in single platelets. […] It is therefore possible to calculate percentage aggregation directly from the recordings of single platelet events using the following formula:—
Where “EDTA count” is the number of platelet events (ie single platelets passing the laser) for a sample containing EDTA which has been fixed in the same way as the test samples, and where “Sample count” is the number of platelet events for the fixed test sample. […]

platelets [2] = test: ADP-induced platelet aggregation in blood of volunteers before and after treatment with clopidogrel or clopidogrel plus aspirin; conditions: ADP 10 μM stimulant tube, citrate blood, percentage of EDTA sample
[3] = tested on: platelet-monocyte conjugates; test: Platelet-monocyte conjugates by flow cytometry (CD14 with CD42a or CD62P) in fixed and stabilised blood; type: cell-based; conditions: after incubation with collagen
Method: (§1) For example, fixed and stabilised samples are removed from the fridge and mixed well until the sedimented cells are fully re-suspended. 500 μl of each sample is then dispensed into appropriately labelled flow cytometry tubes and centrifuged for 10 min at 380 g. 450 μl of the supernatant is then removed, taking care not to disturb the red blood cell pellet. 10 μl of saturating concentrations of CD14-APCCy7 (used to distinguish monocytes and neutrophils) and CD42a-FITC or CD62P-PE (used to identify platelets bound to either monocytes or neutrophils) is then added to the tubes and incubated with the cells in the dark. After 25 minutes, 1 ml of Erythrolyse solution (AbD Serotec, Oxford, UK) is added to the cells and left to stand for 10 minutes to lyse any red blood cells. 1 ml of FACSflow is added and the cells centrifuged at 380 g. Supernatants are decanted and cells re-suspended in 2 ml of FACSflow to wash the cells. The cells are then centrifuged at 380 g again, the supernatant removed and the cells finally re-suspended in 300 μl of FACSflow to await reading on the flow cytometer.
(§2) Leukocytes are initially identified by logical gating from dot plots of forward scatter (cell size) and side scatter (cell granularity) profiles acquired with linear amplification. Fluorescence parameters are acquired with logarithmic amplification and 30,000 leukocyte events are collected for each blood sample. […] Lymphocytes may also be identified by CD14 negativity and a low forward scatter/side scatter profile, but platelet-lymphocyte conjugates are formed to a lesser extent and are not routinely quantitated. Platelet-monocyte and platelet-neutrophil conjugates are quantified as the percentage of monocytes or neutrophils expressing platelet CD42a or CD62P fluorescence in an interval gate which may be adjusted using an appropriate IgG control in each case. Median fluorescence values for CD42a or CD62P are also measured for each population of leukocytes tested. […]

[4] = tested on: platelet-neutrophil conjugates; test: Platelet-neutrophil conjugates by flow cytometry (CD14 with CD42a or CD62P) in fixed and stabilised blood; type: cell-based; conditions: after incubation with collagen
Method: as §1, §2
Referring to FIG. 10, there are shown dot plots used for the identification of platelet-leukocyte conjugates in fixed and stabilised blood samples following incubation with (a) saline, or (b) collagen. […] Platelet-monocyte and platelet-neutrophil conjugate formation following stimulation with collagen is seen as a shift to the right in plot (iii) as the degree of platelet-specific CD42a fluorescence (ie marker expression) increases.
Referring to FIG. 12, there is shown the quantification of platelet-neutrophil conjugates (identified from gates P1 and P4 as shown in FIG. 10) which are detected with the platelet-specific markers CD42a or CD62P. […]

CCCCC/C=C\C/C=C\C/C=C\C/C=C\CCCC(=O)O [AA, arachidonic acid]
degree of aggregation (percentage fall in single platelets) (platelets [1]; 200 nM arachidonic acid, same donor, citrate-anticoagulated blood): 54%

Nc1ncnc2c1ncn2[C@@H]1O[C@H](COP(=O)(O)OP(=O)(O)O)[C@@H](O)[C@H]1O [ADP, adenosine diphosphate]
aggregation (percentage fall in single platelets) (platelets [1]; 1 μM ADP, stirred 4 minutes): 27%
aggregation (percentage fall in single platelets) (platelets [1]; 3 μM ADP, stirred 4 minutes): 62%
aggregation (percentage fall in single platelets) (platelets [1]; 10 μM ADP, stirred 4 minutes): 89%
single platelet events (P4) (platelets [1]; ADP-stimulated fixed sample, per 50,000 red cell events, unstimulated 1716): 182

CCCCC[C@H](O)/C=C/[C@@H]1[C@@H](C/C=C\CCCC(=O)O)[C@H]2CO[C@@H]1C2 [U46619]
degree of aggregation (percentage fall in single platelets) (platelets [1]; 1 μM U46619, same donor, citrate-anticoagulated blood): 96%

CC(=O)Oc1ccccc1C(=O)O [aspirin]
effect on collagen-induced platelet aggregation (platelets [1]; collagen 1, 2, 3, 4 μg/ml for 10 minutes, presence vs absence of aspirin, three donors): significantly reducing the amount of aggregation

COC(=O)[C@H](c1ccccc1Cl)N1CCc2sccc2C1 [clopidogrel]
platelet aggregation after treatment compared with before treatment (platelets [2]): less aggregation; also recorded: inhibited

Platelet Activating Factor [PAF]
degree of aggregation (percentage fall in single platelets) (platelets [1]; 3 μM PAF, same donor, citrate-anticoagulated blood): 70%

Thrombin Receptor Activating Peptide [TRAP]
degree of aggregation (percentage fall in single platelets) (platelets [1]; 10 μM TRAP, same donor, citrate-anticoagulated blood): 89%

collagen
single platelet events in P4 (sample count) (platelets [1]; collagen 1 μg/ml, 4 minutes, per 50,000 erythrocyte events, EDTA count 1118): 693
degree of aggregation (percentage fall in single platelets compared with EDTA sample) (platelets [1]; collagen 1 μg/ml, stirred 4 minutes, citrate-anticoagulated blood): about 38%
platelet-monocyte conjugates, percentage of parent monocyte population (CD42a, % gated) ([3]; saline 8.2): 64.1%
platelet-monocyte conjugates, percentage of parent monocyte population (CD62P, % gated) ([3]; saline 9.3): 98.7%
CD42a median fluorescence of monocyte population ([3]; saline 259): 832 arbitrary units
platelet-neutrophil conjugates, percentage of parent neutrophil population (CD62P, % gated) ([4]; saline 7.3): 72.1%
platelet-neutrophil conjugates, percentage of parent neutrophil population (CD42a, % gated) ([4]; saline 7.9): 21.9%
CD62P median fluorescence of neutrophil population ([4]; saline 141): 688
CD42a median fluorescence of neutrophil population ([4]; saline 142): 201
